Experimental data published in patent publication US7786083B2, “Metastin derivatives and use thereof” (Takeda Pharmaceutical Company Limited, priority 2006, dated 2010).
*1 amine or outer side, *2 acyl side, *3 side chain or, on linkers, in order; H or OH if unused. Where a SMILES comes first, the peptide text is derived from it. [ ]: non-standard residue; d: D form. Glyψ(E-CHCH)Leu = CC(C)C[C@H](/C=C/CN[*:1])C(=O)[*:2]; X1 = CC(C)C[C@H](CCCN[*:1])C(=O)[*:2]; Arg(Me) = CNC(=N)NCCC[C@H](N)C(=O)O; Dap(CONH2) = NC(=O)NC[C@H](N)C(=O)O; Ala(cPr) = N[C@@H](CC1CC1)C(=O)O; Hyp = O=C(O)[C@@H]1C[C@@H](O)CN1; Aad = N[C@@H](CCCC(=O)O)C(=O)O; Cha = N[C@@H](CC1CCCCC1)C(=O)O; Aib = CC(C)(N)C(=O)O

tested on: metastin receptors; assay: Measurement of agonist activity by assaying changes in intracellular calcium ion level (FLIPR, Fluo-4 NW); format: cell-based, human; details: specific activity of the EC50 of a test compound based on the EC50 of Metastin (45-54), metastin receptor expression CHO cells
Experimental: 1) Preparation of Human Metastin and Rat Metastin Stable Expression Cell Lines
Human metastin and rat metastin stable expression cell lines were obtained by transfecting the expression plasmid for animal cells into CHO/dhfr^− cells using CellPhect Transfection Kit (manufactured by GE Healthcare). First, 240 μL of Buffer A (attached to CellPhect Transfection Kit) was added to 9.6 μg of plasmid DNA dissolved in 240 μL of distilled water followed by stirring. After the mixture was settled for 10 minutes, 480 μL of Buffer B (attached to CellPhect Transfection Kit) was added to the mixture, which was vigorously stirred to form liposomes containing the DNA. Then, 4×10^5 CHO/dhfr^− cells (obtained from ATCC) were inoculated on a 60 mm Petri dish. After culturing the cells in Ham's F-12 medium (manufactured by Nissui Seiyaku Co., Ltd.) supplemented with 10% fetal bovine serum (manufactured by BIO […], Inc.) at 37° C. for 2 days in 5% carbon dioxide gas, […] of the liposomes were dropwise added to the cells on the Petri dish. After culturing the cells in a CO2 incubator (5% CO2, 37° C.) for 6 hours, the cells were washed twice with serum-free Ham's F-12 medium and 3 mL of 15% glycerol was added to the cells on the Petri dish followed by treatment for 2 minutes. The cells were again washed twice with serum-free Ham's F-12 medium followed by incubation in Ham's F-12 medium supplemented with 10% fetal bovine serum in a CO2 incubator (5% CO2, 37° C.) for 15 hours. The cells were dispersed by trypsin treatment to recover from the Petri dish. The recovered cells were inoculated on a 6-well plate in 1.25×10^4 cells each/well and incubation was initiated in a CO2 incubator (5% CO2, 37° C.) in Dulbecco's modified Eagle medium (DMEM, manufactured by Nissui Seiyaku) containing 10% dialyzed fetal bovine serum (manufactured by JRH BIOSCIENCES, Inc.). The plasmid-transfected CHO transformants grew in the medium but the non-transfected cells gradually died, accordingly the medium was exchanged on Days 1 and 2 after the initiation of incubation to remove the dead cells. Approximately 20 colonies of the CHO transformants that kept growing on Days 8 to 10 after the incubation were isolated. From the cells in these colonies, cells showing high reactivity with the ligand peptide metastin (hereinafter merely referred to as h175 KB19 and h175 KB29 strains) were selected to provide for the following experiment.
Human metastin expression CHO cell line (h175 KB19 strain is described in a separate section) and rat metastin expression CHO cell line (h175 KB29 strain is described in a separate section) were seeded in a 96-well plate (type 3904, manufactured by Corning) at 3×10^4 cells/well, followed by incubation in a CO2 incubator (5% CO2, 37° C.) for 24 hours. For the medium, MEMα medium (nucleic acid-free, manufactured by Nikken Bio Medical Laboratory) supplemented with dialyzed 10% fetal bovine serum (manufactured by Thermo, MultiSer) was used.
3) Loading with Fluo-4 NW in Cells
As an assay buffer, 1× Hanks' balanced salt solution (HBSS, manufactured by GIBCO) supplemented with 0.1% BSA, 20 mM HEPES (pH 7.4, manufactured by GIBCO) and 1 mM Probenecid (manufactured by Molecular Probes) was prepared. The medium in the wells of the cell-seeded plate was removed and 100 μL each of the assay buffer (kept warm at 37° C.) was added to each well. After 10 mL of the assay buffer (the volume for assaying two plates) was charged in one Fluo-4NW dye mix (Component A, Fluo-4 NW calcium assay kit (starter pack), manufactured by Molecular Probes) bottle, the mixture was gently stirred to prepare the Fluo-4 NW loading solution. This loading solution was charged in each well by 50 μl each and reacted in a CO2 incubator (5% CO2, 37° C.) for 30 minutes for loading with Fluo-4 NW into the cells. Subsequently, the cells were settled at room temperature (25° C.) for 15 minutes and then used for assay.
4) Measurement of Agonist Activity […]

Specific Activity | Structure (SMILES)
0.8 | CNC(=N)NCCC[C@H](NC(=O)[C@@H](CCCNC(=O)[C@H](Cc1ccccc1)NC(=O)[C@@H](NC(=O)[C@H](CC(N)=O)NC(=O)[C@@H]1C[C@@H](O)CN1C(=O)[C@@H](Cc1ccc(O)cc1)NC(C)=O)[C@@H](C)O)CC(C)C)C(=O)N[C@@H](Cc1c[nH]c2ccccc12)C(N)=O [Compound No. 893, des(1)-Ac-[D-Tyr2,Hyp3,Thr5,Gly7Ψ((E)CH2CH2)Leu8,Arg(Me)9,Trp10]MS10] (Ac-[dY][Hyp]NTF[X1][Arg(Me)]W-NH2)
0.5 | CNC(=N)NCCC[C@H](NC(=O)[C@H](CC1CC1)NC(=O)CNC(=O)[C@H](CC1CCCCC1)NC(=O)[C@@H](NC(=O)[C@H](CC(N)=O)NC(=O)[C@@H]1C[C@@H](O)CN1C(=O)[C@@H](Cc1ccc(O)cc1)NC(C)=O)[C@@H](C)O)C(=O)N[C@@H](Cc1c[nH]c2ccccc12)C(N)=O [Compound No. 894, des(1)-Ac-[D-Tyr2,Hyp3,Thr5,Cha6,Ala(cPr)8,Arg(Me)9,Trp10]MS10] (Ac-[dY][Hyp]NT[Cha]G[Ala(cPr)][Arg(Me)]W-NH2)
0.4 | CNC(=N)NCCC[C@H](NC(=O)[C@H](CC1CC1)NC(=O)CNC(=O)[C@H](CC1CCCCC1)NC(=O)[C@@H](NC(=O)[C@H](CC(N)=O)NC(=O)[C@H](CCC(=O)O)NC(=O)[C@@H](Cc1ccc(O)cc1)NC(C)=O)[C@@H](C)O)C(=O)N[C@@H](Cc1c[nH]c2ccccc12)C(N)=O [Compound No. 895, des(1)-Ac-[D-Tyr2,Glu3,Thr5,Cha6,Ala(cPr)8,Arg(Me)9,Trp10]MS10] (Ac-[dY]ENT[Cha]G[Ala(cPr)][Arg(Me)]W-NH2)
0.6 | CNC(=N)NCCC[C@H](NC(=O)[C@@H](/C=C/CNC(=O)[C@H](CC1CCCCC1)NC(=O)[C@@H](NC(=O)[C@H](CC(N)=O)NC(=O)[C@@H]1C[C@@H](O)CN1C(=O)[C@@H](Cc1ccc(O)cc1)NC(C)=O)[C@@H](C)O)CC(C)C)C(=O)N[C@@H](Cc1c[nH]c2ccccc12)C(N)=O [Compound No. 902, des(1)-Ac-[D-Tyr2,Hyp3,Thr5,Cha6,Gly7Ψ((E)CH═CH)Leu8,Arg(Me)9,Trp10]MS10] (Ac-[dY][Hyp]NT[Cha][Glyψ(E-CHCH)Leu][Arg(Me)]W-NH2)
0.4 | CNC(=N)NCCC[C@H](NC(=O)[C@@H](/C=C/CNC(=O)[C@H](CC1CCCCC1)NC(=O)[C@@H](NC(=O)[C@H](CNC(N)=O)NC(=O)[C@@H]1C[C@@H](O)CN1C(=O)[C@@H](Cc1ccc(O)cc1)NC(C)=O)[C@@H](C)O)CC(C)C)C(=O)N[C@@H](Cc1c[nH]c2ccccc12)C(N)=O [Compound No. 903, des(1)-Ac-[D-Tyr2,Hyp3,Alb4,Thr5,Cha6,Gly7Ψ((E)CH═CH)Leu8,Arg(Me)9,Trp10]MS10] (Ac-[dY][Hyp][Dap(CONH2)]T[Cha][Glyψ(E-CHCH)Leu][Arg(Me)]W-NH2)
0.5 | CNC(=N)NCCC[C@H](NC(=O)[C@@H](/C=C/CNC(=O)[C@H](CC1CCCCC1)NC(=O)[C@@H](NC(=O)[C@H](CC(N)=O)NC(=O)[C@H](CCC(=O)O)NC(=O)[C@@H](Cc1ccc(O)cc1)NC(C)=O)[C@@H](C)O)CC(C)C)C(=O)N[C@@H](Cc1c[nH]c2ccccc12)C(N)=O [Compound No. 904, des(1)-Ac-[D-Tyr2,Glu3,Thr5,Cha6,Gly7Ψ((E)CH═CH)Leu8,Arg(Me)9,Trp10]MS10] (Ac-[dY]ENT[Cha][Glyψ(E-CHCH)Leu][Arg(Me)]W-NH2)
0.5 | CNC(=N)NCCC[C@H](NC(=O)[C@@H](/C=C/CNC(=O)[C@H](CC1CCCCC1)NC(=O)[C@@H](NC(=O)[C@H](CNC(N)=O)NC(=O)[C@H](CCC(=O)O)NC(=O)[C@@H](Cc1ccc(O)cc1)NC(C)=O)[C@@H](C)O)CC(C)C)C(=O)N[C@@H](Cc1c[nH]c2ccccc12)C(N)=O [Compound No. 905, des(1)-Ac-[D-Tyr2,Glu3,Alb4,Thr5,Cha6,Gly7Ψ((E)CH═CH)Leu8,Arg(Me)9,Trp10]MS10] (Ac-[dY]E[Dap(CONH2)]T[Cha][Glyψ(E-CHCH)Leu][Arg(Me)]W-NH2)
0.6 | CNC(=N)NCCC[C@H](NC(=O)[C@@H](/C=C/CNC(=O)[C@H](Cc1ccccc1)NC(=O)[C@@H](NC(=O)[C@H](CNC(N)=O)NC(=O)[C@@H]1C[C@@H](O)CN1C(=O)[C@@H](Cc1ccc(O)cc1)NC(C)=O)[C@@H](C)O)CC(C)C)C(=O)N[C@@H](Cc1c[nH]c2ccccc12)C(N)=O [Compound No. 906, des(1)-Ac-[D-Tyr2,Hyp3,Alb4,Gly7Ψ((E)CH═CH)Leu8,Arg(Me)9,Trp10]MS10] (Ac-[dY][Hyp][Dap(CONH2)]TF[Glyψ(E-CHCH)Leu][Arg(Me)]W-NH2)
0.6 | CNC(=N)NCCC[C@H](NC(=O)[C@@H](/C=C/CNC(=O)[C@H](Cc1ccccc1)NC(=O)[C@@H](NC(=O)[C@H](CC(N)=O)NC(=O)[C@H](CCC(=O)O)NC(=O)[C@@H](Cc1ccc(O)cc1)NC(C)=O)[C@@H](C)O)CC(C)C)C(=O)N[C@@H](Cc1c[nH]c2ccccc12)C(N)=O [Compound No. 907, des(1)-Ac-[D-Tyr2,Glu3,Thr5,Gly7Ψ((E)CH═CH)Leu8,Arg(Me)9,Trp10]MS10] (Ac-[dY]ENTF[Glyψ(E-CHCH)Leu][Arg(Me)]W-NH2)
0.5 | CNC(=N)NCCC[C@H](NC(=O)[C@@H](/C=C/CNC(=O)[C@H](Cc1ccccc1)NC(=O)[C@@H](NC(=O)[C@H](CNC(N)=O)NC(=O)[C@H](CCC(=O)O)NC(=O)[C@@H](Cc1ccc(O)cc1)NC(C)=O)[C@@H](C)O)CC(C)C)C(=O)N[C@@H](Cc1c[nH]c2ccccc12)C(N)=O [Compound No. 908, des(1)-Ac-[D-Tyr2,Glu3,Alb4,Thr5,Gly7Ψ((E)CH═CH)Leu8,Arg(Me)9,Trp10]MS10] (Ac-[dY]E[Dap(CONH2)]TF[Glyψ(E-CHCH)Leu][Arg(Me)]W-NH2)
2.5 | CNC(=N)NCCC[C@H](NC(=O)[C@H](CC1CC1)NC(=O)CNC(=O)[C@H](CC1CCCCC1)NC(=O)[C@@H](NC(=O)[C@H](CC(N)=O)NC(=O)[C@H](CC(=O)O)NC(=O)[C@@H](Cc1ccc(O)cc1)NC(C)=O)[C@@H](C)O)C(=O)N[C@@H](Cc1c[nH]c2ccccc12)C(N)=O [Compound No. 909, des(1)-Ac-[D-Tyr2,Asp3,Thr5,Cha6,Ala(cPr)8,Arg(Me)9,Trp10]MS10] (Ac-[dY]DNT[Cha]G[Ala(cPr)][Arg(Me)]W-NH2)
1.1 | CNC(=N)NCCC[C@H](NC(=O)[C@H](CC1CC1)NC(=O)CNC(=O)[C@H](CC1CCCCC1)NC(=O)[C@@H](NC(=O)[C@H](CC(N)=O)NC(=O)[C@H](CCCC(=O)O)NC(=O)[C@@H](Cc1ccc(O)cc1)NC(C)=O)[C@@H](C)O)C(=O)N[C@@H](Cc1c[nH]c2ccccc12)C(N)=O [Compound No. 910, des(1)-Ac-[D-Tyr2,Aad3,Thr5,Cha6,Ala(cPr)8,Arg(Me)9,Trp10]MS10] (Ac-[dY][Aad]NT[Cha]G[Ala(cPr)][Arg(Me)]W-NH2)
0.7 | CNC(=N)NCCC[C@H](NC(=O)[C@H](CC1CC1)NC(=O)CNC(=O)[C@H](CC1CCCCC1)NC(=O)[C@@H](NC(=O)[C@H](CC(N)=O)NC(=O)[C@H](CCCCN)NC(=O)[C@@H](Cc1ccc(O)cc1)NC(C)=O)[C@@H](C)O)C(=O)N[C@@H](Cc1c[nH]c2ccccc12)C(N)=O [Compound No. 911, des(1)-Ac-[D-Tyr2,Lys3,Thr5,Cha6,Ala(cPr)8,Arg(Me)9,Trp10]MS10] (Ac-[dY]KNT[Cha]G[Ala(cPr)][Arg(Me)]W-NH2)
0.6 | CNC(=N)NCCC[C@H](NC(=O)[C@H](CC1CC1)NC(=O)CNC(=O)[C@H](CC1CCCCC1)NC(=O)[C@@H](NC(=O)[C@H](CC(N)=O)NC(=O)C(C)(C)NC(=O)[C@@H](Cc1ccc(O)cc1)NC(C)=O)[C@@H](C)O)C(=O)N[C@@H](Cc1c[nH]c2ccccc12)C(N)=O [Compound No. 912, des(1)-Ac-[D-Tyr2,Aib3,Thr5,Cha6,Ala(cPr)8,Arg(Me)9,Trp10]MS10] (Ac-[dY][Aib]NT[Cha]G[Ala(cPr)][Arg(Me)]W-NH2)
